Experimental findings from PubChem BioAssay AID434987 (Southern Research Specialized Biocontainment Screening …, 2010) are described below.

Activity calls are given as the source filed them. How the calls were made is not given here.

This test relates to M. tuberculosis H37Rv growth inhibition with meropenem. Description: dose response, H37Rv, with and without meropenem (AID 434987).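 Further: growth over 7 days at 37 °C before Alamar Blue read on day 9.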
Setting [1] is: M. tuberculosis H37Rv growth inhibition, measured here: IC50 without meropenem.
Where [2] appears, read: M. tuberculosis H37Rv growth inhibition, measured here: IC90 without meropenem.
[3] abbreviates: measured here: IC90 with meropenem.

With `COc1cc(C(=O)Nc2cccc(-c3cn4cccnc4n3)c2)cc(OC)c1OC`, the IC50 was 10.9 µM. For the same compound, under setting [1], the 50% inhibitory concentration (IC50) worked out at 35 µM. Moreover, the IC90 under setting [2] is above 100 µM. This compound also showed an IC90 under setting [3] of 30.2 µM.
The corresponding values for `O=C(CC1SC(=O)NC1=O)Oc1ccc(/C=N/NC(=O)c2ccccc2O)cc1` (stereo not given) are 6.41 µM, 41.3 µM, above 100 µM and above 100 µM.
Consider `CC(/C=N/NC(=O)c1cc(-c2cccs2)[nH]n1)=C\c1ccccc1`, for which the IC50 was > 100 µM (inactive). Under setting [1], this compound yielded an IC50 above 100 µM. Moreover, the IC90 under setting [2] is above 100 µM. The IC90 under setting [3] is above 100 µM.
For `C=C(C)C(=O)O[C@H]1C/C(C)=C\C(=O)/C=C(\C)[C@H](O)[C@@H]2OC(=O)C(=C)[C@@H]21`, the IC50 is 10.3 µM. Under setting [1], this compound came in with a concentration for half-maximal inhibition (IC50) of 41.1 µM. In addition, the IC90 under setting [2] turned out to be 56 µM. Besides, the IC90 under setting [3] was 31.3 µM.
With `Cc1ccc(-c2nc3[nH]c(=O)cc(NC(=O)C(C)C)n3n2)cc1`, the IC50 was 7.36 µM. The same compound gave an IC50 under setting [1] above 100 µM. The compound also came in with an IC90 under setting [2] above 100 µM. This compound also yielded an IC90 under setting [3] above 12.5 µM.
`O=C1NC(=O)N(Cc2ccco2)C(=O)/C1=C\c1ccc(-c2ccc(F)cc2)o1`: the IC50 was 80.7 µM (inactive). The IC50 under setting [1] was determined as 84.5 µM. Under setting [2], this compound had an IC90 above 100 µM. For the same compound, the IC90 under setting [3] was above 100 µM.
As for `COc1cccc(/C=N/NC(N)=S)c1OS(=O)(=O)c1ccccc1`, the IC50 is 19.2 µM. This compound returned an IC50 under setting [1] above 100 µM. Under setting [2], this compound yielded an IC90 above 100 µM. This compound displayed an IC90 under setting [3] above 25 µM.
On to `Cc1nnc(SCC2=C(C(=O)O)N3C(=O)C(NC(=O)COc4ccc(F)cc4)C3SC2)s1` (stereo not given), for which the IC50 was 1.74 µM. Under setting [1], this compound showed an IC50 of 99 µM. The IC90 under setting [2] was above 100 µM. In addition, the IC90 under setting [3] was 9.33 µM.
The corresponding values for `O=C(NCc1ccc2c(c1)OCO2)C(=O)NC1CCCCC1` are > 100 µM (inactive), above 100 µM, above 100 µM and above 100 µM.
`O=C1OC(/C=C/c2ccccc2)=NC/1=C/c1ccco1`: the IC50 was 0.691 µM. The IC50 under setting [1] is 3.11 µM. Also, the IC90 under setting [2] turned out to be 13 µM. The IC90 under setting [3] was found to be 13.9 µM.
The corresponding values for `O=C(/C=C/c1ccccc1)NC1CC2CCC1C2` (stereo not given) are > 100 µM (inactive), above 100 µM, above 100 µM and above 100 µM.
On to `CCCCNC(=O)c1onc(CSc2ccc(F)c(F)c2)c1C(=O)O`, for which the IC50 was 27.8 µM (inactive). Besides, the IC50 under setting [1] turned out to be 54.4 µM. This compound also came in with an IC90 under setting [2] above 100 µM. The compound further showed an IC90 under setting [3] of 56.8 µM.
Consider `COc1cc(C(=O)NNC(=O)c2cc(-c3ccccc3)n[nH]2)cc(OC)c1C`, for which the IC50 is 19.7 µM. Also, the IC50 under setting [1] is above 100 µM. Under setting [2], this compound came in with an IC90 above 100 µM. The IC90 under setting [3] is above 50 µM.
As to `N/C(=N\c1nc2ccccc2o1)NC(=O)c1ccccc1Br`, the IC50 was below 0.2 µM. Moreover, the IC50 under setting [1] came to 28.4 µM. The IC90 under setting [2] was above 100 µM. The IC90 under setting [3] is above 100 µM.
`O=C1Nc2c(ccc(Cl)c2Cl)C(=O)C1(F)c1ccccc1` (stereo not given): the IC50 was 23.7 µM. The compound further showed an IC50 under setting [1] of 95.6 µM. The IC90 under setting [2] is above 100 µM. Under setting [3], the IC90 is 71.7 µM.
The matching figures for `Cc1cc(C)c(OCC(=O)Nc2nc3ccccc3[nH]2)c(C)c1`: 1.22 µM, 22.1 µM, above 100 µM and 65.2 µM.
The matching figures for `Cc1cc2c(N=NC(=O)C3CC3c3ccccc3)c(O)[nH]c2cc1Br` (stereo not given): > 100 µM (inactive), above 100 µM, above 100 µM and above 100 µM.
Regarding `C/C(CC(=O)NCc1ccco1)=N\NC(=O)CC#N`, the IC50 is 4.68 µM. The IC50 under setting [1] is 43.3 µM. Besides, the IC90 under setting [2] is above 100 µM. The same compound had an IC90 under setting [3] of 17.6 µM.
Turning to `Cn1c(=S)[nH]c2sc3c(c2c1=O)CCC(C(C)(C)C)C3` (stereo not given), the IC50 is 38 µM (inactive). The IC50 under setting [1] was found to be 79 µM. The IC90 under setting [2] was above 100 µM. This compound returned an IC90 under setting [3] above 100 µM.
`CCOC(=O)c1ccc(-c2ccc(C=O)o2)cc1`: the IC50 was 29.1 µM (inactive). Besides, the IC50 under setting [1] was 44.6 µM. Moreover, the IC90 under setting [2] was above 100 µM. Moreover, the IC90 under setting [3] is above 100 µM.
In the case of `Cn1c(/C=C/c2ccc(Cl)cc2)nc2ccccc2c1=O`, the IC50 is 52.1 µM (inactive). This compound showed an IC50 under setting [1] above 100 µM. This compound also came in with an IC90 under setting [2] above 100 µM. In addition, under setting [3], the 90% effect concentration (IC90) is above 100 µM.
On to `CCOC(=O)c1ccc(NC(=O)Cc2coc3cc4c(cc23)CCC4)cc1`, for which the IC50 was > 100 µM (inactive). For the same compound, under setting [1], the IC50 is above 100 µM. This compound had a 90% effect concentration (IC90) under setting [2] above 100 µM. This compound displayed an IC90 under setting [3] above 100 µM.
On to `O=C(Cc1ccc(Cl)cc1Cl)Nc1ccc(OC(F)F)c(Cl)c1`, for which the IC50 is 12.1 µM. Under setting [1], the IC50 is above 100 µM. Under setting [2], this compound displayed an IC90 above 100 µM. For the same compound, under setting [3], the IC90 turned out to be 13.7 µM.
`NS(=O)(=O)c1ccc(Sc2nc3ccccc3s2)c([N+](=O)[O-])c1`: the IC50 was > 100 µM (inactive). Besides, the IC50 under setting [1] is above 100 µM. Also, under setting [2], the IC90 is above 100 µM. Besides, the IC90 under setting [3] was above 100 µM.
On to `Cc1ccnn1CC(=O)N/N=C/c1ccc([N+](=O)[O-])s1`, for which the IC50 is 91.5 µM (inactive). In addition, under setting [1], the IC50 was 88.5 µM. Moreover, the IC90 under setting [2] was 95.9 µM. The compound further gave an IC90 under setting [3] above 100 µM.
`COCc1cc(=O)n2[nH]cc(-c3ccccc3)c2n1`: the IC50 is 10.1 µM. Further, the IC50 under setting [1] is 41.4 µM. For the same compound, under setting [2], the 90% effect concentration (IC90) is above 100 µM. Moreover, the IC90 under setting [3] is 15.5 µM.
On to `CC1CCc2nc(NC(=O)C3COc4ccccc4O3)sc2C1` (stereo not given), for which the IC50 is 26.2 µM (inactive). The IC50 under setting [1] was 51.9 µM. This compound yielded an IC90 under setting [2] above 100 µM. This compound registered an IC90 under setting [3] above 100 µM.
As for `Cc1ccc(-n2nnnc2Sc2nc([N+](=O)[O-])nn2C)c(C)c1`, the IC50 was 16.5 µM. The same compound registered an IC50 under setting [1] of 50.4 µM. In addition, under setting [2], the IC90 is above 100 µM. The same compound registered an IC90 under setting [3] above 100 µM.
Turning to `CSc1ccccc1C(=O)Nc1cccc([N+](=O)[O-])c1C`, the IC50 was > 100 µM (inactive). The IC50 under setting [1] was above 100 µM. Under setting [2], the IC90 is above 100 µM. Under setting [3], the IC90 is above 100 µM.
On to `CN(Cc1ccccc1)C(=S)NC(=O)c1ccc(-c2ccccc2)cc1`, for which the IC50 is 7.23 µM. Moreover, the IC50 under setting [1] was 24.2 µM. Under setting [2], this compound displayed an IC90 above 100 µM. This compound yielded an IC90 under setting [3] above 100 µM.
`COc1ccc(NC(=O)COC(=O)Cc2ccc(-c3ccccc3)cc2)c(OC)c1`: the IC50 is > 100 µM (inactive). Under setting [1], this compound had an IC50 above 100 µM. The IC90 under setting [2] is above 100 µM. The same compound yielded an IC90 under setting [3] above 100 µM.
Turning to `O=C(Nc1nc2ccccc2n1CCN1CCCC1)C1CCCCC1`, the IC50 is 8.68 µM. Under setting [1], the IC50 is 23.9 µM. Under setting [2], the IC90 is 47.2 µM. This compound yielded an IC90 under setting [3] of 27.5 µM.
The matching figures for `Cn1c(=O)c2[nH]c(CNCc3ccccc3Cl)nc2n(C)c1=O`: 37.1 µM, above 100 µM, above 100 µM and above 100 µM.
Turning to `CN(C(=O)Nc1ccc(Cl)cc1)n1cnc2ccccc2c1=O`, the IC50 is 44.9 µM (inactive). The IC50 under setting [1] was found to be 95.9 µM. Besides, the IC90 under setting [2] was above 100 µM. Under setting [3], this compound displayed an IC90 of 48.6 µM.
For the compound `CCOc1cccc(=O)c2c(C)n(Cc3ccccc3)c(C)c12`, the IC50 is > 100 µM (inactive). The compound also returned an IC50 under setting [1] above 100 µM. In addition, the IC90 under setting [2] is above 100 µM. The IC90 under setting [3] is above 100 µM.
Regarding `CCOC(=O)c1c(NC(=S)NC(=O)c2ccc(Cn3cc(Cl)cn3)o2)sc2c1CCC(C)C2` (stereo not given), the IC50 was > 100 µM (inactive). This compound yielded an IC50 under setting [1] above 100 µM. The same compound registered an IC90 under setting [2] above 100 µM. Also, under setting [3], the IC90 is above 100 µM.
For the compound `COc1ccc(N2C(=O)NC(=O)/C(=C\c3ccc([N+](=O)[O-])s3)C2=O)cc1`, the IC50 was 16.3 µM (inactive). The compound also displayed an IC50 under setting [1] of 22.9 µM. This compound also gave an IC90 under setting [2] of 25.7 µM. This compound came in with a concentration for an effect of 90% (IC90) under setting [3] of 21.3 µM.
As for `Cc1ccc(C)c(N2CCN(C3CCCC(C)C3)CC2)c1` (stereo not given), the IC50 was 37.9 µM (inactive). Under setting [1], the IC50 is 48.7 µM. In addition, under setting [2], the IC90 was above 100 µM. The same compound displayed an IC90 under setting [3] of 48.2 µM.
The matching figures for `Cc1cccnc1NC(=O)c1cc2ccccc2oc1=O`: 46.7 µM (inactive), above 100 µM, above 100 µM and above 100 µM.
Consider `O=S(=O)(Cc1ccccc1)c1cnc2ccccc2n1`, for which the IC50 was 14.1 µM (inactive). Besides, under setting [1], the IC50 was found to be 24.3 µM. The IC90 under setting [2] amounted to 26.6 µM. Under setting [3], this compound displayed an IC90 of 48.6 µM.
The corresponding values for `O=C(/C=C/c1cc(Br)ccc1F)OCC(=O)N1CCCC1` are > 100 µM (inactive), above 100 µM, above 100 µM and above 100 µM.
On to `Cc1ccc(C(=O)N2CCC3(CC2)Oc2ccc(F)cc2C(=O)C32CC(c3cccnc3)=NO2)s1` (stereo not given), for which the IC50 is 97.5 µM (inactive). The same compound gave a half-maximal inhibitory concentration (IC50) under setting [1] of 94.9 µM. Under setting [2], this compound displayed an IC90 above 100 µM. Moreover, under setting [3], the IC90 was above 100 µM.
`CCCn1c2ccccc2c2nnc(SCC(=O)OCC)nc21`: the IC50 is 27.7 µM (inactive). Besides, under setting [1], the IC50 was found to be 29.1 µM. The IC90 under setting [2] was above 50 µM. Under setting [3], this compound had an IC90 above 100 µM.
With `CCc1cc(C(N)=S)ccn1`, the IC50 is 8.46 µM. The same compound yielded an IC50 under setting [1] of 59.3 µM. The IC90 under setting [2] is above 100 µM. Under setting [3], this compound registered an IC90 of 12.8 µM.
The matching figures for `Cn1c(/C=C/c2ccc(Cl)cc2)c([N+](=O)[O-])c(=O)n(C)c1=O`: > 100 µM (inactive), above 100 µM, above 100 µM and above 100 µM.
